According to PubChem BioAssay (NCI):
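Dose response: 5 concentrations. Exposure: 48 h. Format: 96-well plates. Endpoint: linear interpolation; highest concentration if not reached. Abbreviation: GI50, concentration required for 50% inhibition of growth. TGI marks complete inhibition of growth.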

Tests used:
Assay in all cases: NCI anticancer screen, dose series, 48 h
[1] = tested on: SW-620 colon
[2] = tested on: HT29 colon
[3] = tested on: MOLT-4 leukemia
[4] = tested on: ACHN renal
[5] = tested on: U251 CNS
[6] = tested on: MDA-MB-435
[7] = tested on: CCRF-CEM leukemia
[8] = tested on: SN12C renal
[9] = tested on: HS 578T breast
[10] = tested on: MDA-MB-231 breast
[11] = tested on: HL-60(TB) leukemia
[12] = tested on: HCT-15 colon
[13] = tested on: UACC-257 melanoma
[14] = tested on: CAKI-1 renal
[15] = tested on: OVCAR-8 ovarian
[16] = tested on: SR leukemia
[17] = tested on: SF-539 CNS
[18] = tested on: M14 melanoma
[19] = tested on: HOP-92 NSCLC
[20] = tested on: SNB-19 CNS
[21] = tested on: 786-0 renal
[22] = tested on: SK-OV-3 ovarian
[23] = tested on: SF-295 CNS
[24] = tested on: SK-MEL-5 melanoma
[25] = tested on: NCI-H226 lung
[26] = tested on: BT-549 breast
[27] = tested on: PC-3 prostate
[28] = tested on: SK-MEL-28 melanoma
[29] = tested on: COLO 205 colon
[30] = tested on: LOX IMVI melanoma
[31] = tested on: SNB-75 CNS
[32] = tested on: A549 NSCLC
[33] = tested on: RPMI-8226 leukemia
[34] = tested on: K-562 leukemia
[35] = tested on: NCI-H460 lung
[36] = tested on: MCF7 breast
[37] = tested on: OVCAR-5 ovarian
[38] = tested on: KM12 colon
[39] = tested on: RXF 393 renal
[40] = tested on: HCT-116 colon
[41] = tested on: IGROV1 ovarian
[42] = tested on: UACC-62 melanoma
[43] = tested on: NCI/ADR-RES ovarian
[44] = tested on: T-47D breast
[45] = tested on: NCI-H522 lung
[46] = tested on: MALME-3M melanoma
[47] = tested on: OVCAR-4 ovarian
[48] = tested on: HCC-2998 colon
[49] = tested on: SF-268 CNS
[50] = tested on: UO-31 renal
[51] = tested on: NCI-H23 lung
[52] = tested on: OVCAR-3 ovarian
[53] = tested on: HOP-62 NSCLC
[54] = tested on: DU-145 prostate
[55] = tested on: EKVX NSCLC
[56] = tested on: A498 renal

**Q.** Which results are given for `Cc1nc2sc(C(=O)Nc3cccc(Cl)c3C)c(N)c2cc1C(C)O` (stereo unspecified)?
**A.** GI50 [1]: 127 nM; TGI [1]: > 54300 nM; GI50 [2]: 112 nM; TGI [2]: 13800 nM; GI50 [3]: 151 nM; TGI [3]: > 42700 nM; GI50 [4]: 630 nM; TGI [4]: > 50100 nM; GI50 [5]: 223 nM; TGI [5]: > 39200 nM; GI50 [6]: 28.8 nM; TGI [6]: 101 nM; GI50 [7]: 115 nM; TGI [7]: > 54700 nM; GI50 [8]: 916 nM; TGI [8]: > 47400 nM; GI50 [9]: 182 nM; TGI [9]: > 74900 nM; GI50 [10]: 547 nM; TGI [10]: 46500 nM; GI50 [11]: 92 nM; GI50 [12]: 91 nM; TGI [12]: > 39600 nM; GI50 [13]: 20200 nM; TGI [13]: > 51600 nM; GI50 [14]: 334 nM; TGI [14]: > 100000 nM; GI50 [15]: 396 nM; TGI [15]: > 71700 nM; GI50 [16]: 41.8 nM; TGI [16]: > 51700 nM; GI50 [17]: 181 nM; TGI [17]: 1900 nM; GI50 [18]: 341 nM; TGI [18]: > 100000 nM; GI50 [19]: 4360 nM; TGI [19]: 53400 nM; GI50 [20]: 293 nM; TGI [20]: > 100000 nM; GI50 [21]: 449 nM; TGI [21]: > 49200 nM; GI50 [22]: 382 nM; TGI [22]: > 61000 nM; GI50 [23]: 119 nM; TGI [23]: > 41600 nM; GI50 [24]: 260 nM; TGI [24]: 15600 nM; GI50 [25]: 2210 nM; TGI [25]: > 80800 nM; GI50 [26]: 475 nM; TGI [26]: > 32300 nM; GI50 [27]: 286 nM; TGI [27]: > 100000 nM; GI50 [28]: 5800 nM; TGI [28]: > 55600 nM; GI50 [29]: 257 nM; TGI [29]: 7040 nM; GI50 [30]: 274 nM; TGI [30]: > 44100 nM; GI50 [31]: 97 nM; TGI [31]: > 42100 nM; GI50 [32]: 246 nM; TGI [32]: > 61800 nM; GI50 [33]: 347 nM; TGI [33]: > 94000 nM; GI50 [34]: 45.9 nM; TGI [34]: > 38500 nM; GI50 [35]: 237 nM; TGI [35]: > 37200 nM; GI50 [36]: 103 nM; TGI [36]: > 53200 nM; GI50 [37]: 700 nM; TGI [37]: > 74800 nM; GI50 [38]: 175 nM; TGI [38]: > 41100 nM; GI50 [39]: 189 nM; TGI [39]: 18100 nM; GI50 [40]: 159 nM; TGI [40]: > 35700 nM; GI50 [41]: 414 nM; TGI [41]: > 69600 nM; GI50 [42]: 85.2 nM; TGI [42]: 44900 nM; GI50 [43]: 119 nM; TGI [43]: > 61300 nM; GI50 [44]: 443 nM; TGI [44]: > 100000 nM; GI50 [45]: 112 nM; TGI [45]: 5960 nM; GI50 [46]: 1110 nM; TGI [46]: 37500 nM; GI50 [47]: 3450 nM; TGI [47]: > 68400 nM; GI50 [48]: 532 nM; TGI [48]: 26300 nM; GI50 [49]: 5750 nM; TGI [49]: > 82200 nM; GI50 [50]: 610 nM; TGI [50]: 29200 nM; GI50 [51]: 567 nM; TGI [51]: > 56600 nM; GI50 [52]: 114 nM; TGI [52]: > 33400 nM; GI50 [53]: 530 nM; TGI [53]: > 100000 nM; GI50 [54]: 329 nM; TGI [54]: > 86500 nM; GI50 [55]: 533 nM; TGI [55]: > 77000 nM; GI50 [56]: 17.3 nM; TGI [56]: 544 nM
